According to patent US10604784B2, “Method and device for antibiotic susceptibility testing based on fluctuations of electrical resistance in a microchannel” (TRUSTEES OF BOSTON UNIVERSITY, priority 2016, dated 2020):

Tests used:
Format in all cases: cell-based
S. epidermidis = assay: Mean resistance based susceptibility test in the microchannel (bacterial growth); conditions: broth/Vancomycin mixture, vancomycin 4 μg/ml, t=0 to 4 hrs
Method: After the bacteria are trapped, for the Mean Resistance based Susceptibility Test 410, at 412, the baseline mean (average or time-averaged measured resistance through the channel) resistance can be measured for a predefined period of time. The baseline mean can be determined as a function (e.g., the average or time-average) of the measured resistance through the channel for two or more points in time. After the baseline mean resistance is determined, at 414, the antibiotic is added to the solution, either via one of the reservoirs 110 or directly to the microchannel 120 and, at 416, the solution containing the bacteria and the antibiotic is allowed to incubate for a predefined period of time (e.g., 1-3 hours, although shorter or longer periods can be used). After the expiration of a predefined period of time, at 418, the mean resistance is determined (e.g., as a function of the measured resistance through the channel for two or more points in time) and, at 420, the mean resistance is compared to the baseline mean resistance. […]
In the experiment shown in FIGS. 14, 15 and 16, the susceptibility of S. epidermidis to Vancomycin was tested using the mean resistance based approach shown in the flowchart in FIG. 4. As discussed above, S. epidermidis is non-motile and readily settles in the microchannel. […]

resistant E. coli strain = assay: Electrical fluctuation based susceptibility test of immobilized bacteria in human urine/broth, resistant strain; conditions: about 50 bacteria, urine/broth/antibiotic mixture, antibiotic concentration above MIC, FIG. 13B/13C
Method: (§1) After the bacteria are trapped, for the Electrical Fluctuation based Susceptibility Test 430, at 432, the system measures the fluctuations of the electrical signals (e.g., voltage or current) to determine a baseline RMS signal level (e.g., the RMS level determined as function of the measured signal fluctuations). Next, at 434, the antibiotic is added to the solution, either via one of the reservoirs 110 or directly to the microchannel 120. Next, at 436, the (RMS) fluctuations of the electrical signal (e.g., voltage or current) are measured again and an RMS level can be determined as a function of the measured signal fluctuations, and, at 440, the RMS level of the fluctuations of the electrical signal can be compared to the baseline RMS signal level. If the RMS level of the fluctuations of the electrical signal is greater than the baseline signal RMS level, then the bacteria can be considered resistant to the antibiotic at 442. If the RMS level of the fluctuations of the electrical signal is not greater than the baseline RMS signal level, the bacteria can be considered susceptible to attack by the antibiotic at 444.
(§2) FIGS. 13A, 13B, and 13C show the results of antibiotic susceptibility studies in human urine. In this example, two strains of E. coli are used, with one being resistant to the administered antibiotic, nalidixic acid. […]

[1] = test system: susceptible E. coli strain; assay: Electrical fluctuation based susceptibility test of immobilized bacteria in human urine/broth, susceptible strain; conditions: about 50 bacteria, urine/broth/antibiotic mixture, antibiotic concentration above MIC, FIG. 13A/13C
Method: as §1, §2

| Structure (SMILES) | population size of bacteria in the antibiotic solution (S. epidermidis) | mean resistance value (change over time) (S. epidermidis; FIG. 16) | voltage fluctuations (RMS amplitude) over time after antibiotic is administered (resistant E. coli strain) | voltage fluctuations (RMS amplitude) over time after antibiotic is administered [1] |
| --- | --- | --- | --- | --- |
| CN[C@H](CC(C)C)C(=O)N[C@H]1C(=O)N[C@@H](CC(N)=O)C(=O)N[C@H]2C(=O)N[C@H]3C(=O)N[C@H](C(=O)N[C@H](C(=O)O)c4cc(O)cc(O)c4-c4cc3ccc4O)[C@H](O)c3ccc(c(Cl)c3)Oc3cc2cc(c3O[C@@H]2O[C@H](CO)[C@@H](O)[C@H](O)[C@H]2O[C@H]2C[C@](C)(N)[C@H](O)[C@H](C)O2)Oc2ccc(cc2Cl)[C@H]1O [Vancomycin] | the population size stays the same | does not change noticeably |  |  |
| CCn1cc(C(=O)O)c(=O)c2ccc(C)nc21 [nalidixic acid] |  |  | do not show significant changes over time | decay rather quickly |
